Measurements from patent US8349897B2, “Biphenyloxyacetic acid derivatives for the treatment of respiratory disease” (Astrazeneca AB, priority 2005, dated 2013).

Biological target: T1, rhCRTh2 (Homo sapiens, UniProt Q9Y5Y4)
T1 construct: expressed in transfected cells; host or cells: HEK cells (membrane preparation)
T1 sequence (Q9Y5Y4 1-395): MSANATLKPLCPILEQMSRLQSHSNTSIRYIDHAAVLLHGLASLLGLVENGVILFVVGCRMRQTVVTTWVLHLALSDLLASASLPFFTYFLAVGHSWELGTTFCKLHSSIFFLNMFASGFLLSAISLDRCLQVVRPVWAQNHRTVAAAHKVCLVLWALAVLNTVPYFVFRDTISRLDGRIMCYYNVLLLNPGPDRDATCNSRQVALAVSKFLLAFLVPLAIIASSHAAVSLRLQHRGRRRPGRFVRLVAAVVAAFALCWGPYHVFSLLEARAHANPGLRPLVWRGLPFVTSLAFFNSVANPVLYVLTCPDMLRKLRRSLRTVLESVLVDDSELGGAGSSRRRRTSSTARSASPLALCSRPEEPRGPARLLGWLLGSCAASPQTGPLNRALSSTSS
Test: Ligand binding assay ([3H]PGD2 SPA, HEK cell membranes)
Details: [3H]PGD2 displacement, membranes of HEK cells expressing rhCRTh2/Gα16, SPA beads, 2 hours room temperature; read-out: pIC50 value (converted)
Method: [^3H]PGD2 was purchased from Perkin Elmer Life Sciences with a specific activity of 100-210 Ci/mmol. All other chemicals were of analytical grade.
HEK cells expressing rhCRTh2/Gα16 were routinely maintained in DMEM containing 10% Foetal Bovine Serum (HyClone), 1 mg/ml geneticin, 2 mM L-glutamine and 1% non-essential amino acids. For the preparation of membranes, the adherent transfected HEKcells were grown to confluence in two layer tissue culture factories (Fisher, catalogue number TKT-170-070E). Maximal levels of receptor expression were induced by addition of […] sodium butyrate for the last 18 hours of culture. The adherent cells were washed once with phosphate buffered saline (PBS, 50 ml per cell factory) and detached by the addition of 50 ml per cell factory of ice-cold membrane homogenisation buffer [20 mM HEPES (pH 7.4), 0.1 mM dithiothreitol, 1 mM EDTA, 0.1 mM phenyl methyl sulphonyl fluoride and 100 μg/ml bacitracin]. […] The final pellet was re-suspended in 4 ml of membrane homogenisation buffer per cell factory used and the protein content determined. […]
All assays were performed in Corning clear bottomed, white 96-well NBS plates (Fisher). […] (The optimum coating concentrations were determined for each batch of membranes) The beads were pelleted by centrifugation (800×g for 7 minutes at 4° C.), washed once with assay buffer (50 mM HEPES pH 7.4 containing 5 mM magnesium chloride) and finally re-suspended in assay buffer at a bead concentration of 10 mg/ml.
Each assay contained 20 μl of 6.25 nM [^3H]PGD2, 20 μl membrane saturated SPA beads both in assay buffer and 10 μl of compound solution or 13,14-dihydro-15-keto prostaglandin D2 (DK-PGD2, for determination of non-specific binding, Cayman chemical company). […] The assay plate was incubated at room temperature for 2 hours and counted on a Wallac Microbeta liquid scintillation counter (1 minute per well).

IC50 | Structure (SMILES)
1.58 nM | C[C@H](Oc1ccc(Cl)cc1-c1ccc(S(=O)(=O)c2ccc(F)cc2)cc1)C(=O)O [Example 8, (2S)-2-({5-chloro-4′-[(4-fluorophenyl)sulfonyl]biphenyl-2-yl}oxy)propanoic acid]
3.16 nM | O=C(O)COc1ccc(F)cc1-c1ccc(S(=O)(=O)c2ccccc2)c(C(F)(F)F)c1 [Example 7, {[5-fluoro-4′-(phenylsulfonyl)-3′-(trifluoromethyl)biphenyl-2-yl]oxy}acetic acid]
1.58 nM | C[C@H](Oc1ccc(F)cc1-c1ccc(S(=O)(=O)c2ccccc2)cc1Cl)C(=O)O [Example 15, (2S)-2-{[2′-chloro-5-fluoro-4′-(phenylsulfonyl)biphenyl-2-yl]oxy}propanoic acid]
